Data on 21 compounds can be found in US20240360126A1, “PYRAZOLO[3,4-B]PYRIDINE COMPOUNDS FOR THE TREATMENT OF AUTOIMMUNE DISEASE” (Hoffmann-La Roche Inc., priority 2021, published 2024).

Each structure is given as a SMILES string.

The test addresses T1, human TLR7 (Homo sapiens, UniProt Q9NYK1).
T1 construct: host or cells: HEK293 (HEK-Blue hTLR7)
T1 sequence (Q9NYK1 27-1049): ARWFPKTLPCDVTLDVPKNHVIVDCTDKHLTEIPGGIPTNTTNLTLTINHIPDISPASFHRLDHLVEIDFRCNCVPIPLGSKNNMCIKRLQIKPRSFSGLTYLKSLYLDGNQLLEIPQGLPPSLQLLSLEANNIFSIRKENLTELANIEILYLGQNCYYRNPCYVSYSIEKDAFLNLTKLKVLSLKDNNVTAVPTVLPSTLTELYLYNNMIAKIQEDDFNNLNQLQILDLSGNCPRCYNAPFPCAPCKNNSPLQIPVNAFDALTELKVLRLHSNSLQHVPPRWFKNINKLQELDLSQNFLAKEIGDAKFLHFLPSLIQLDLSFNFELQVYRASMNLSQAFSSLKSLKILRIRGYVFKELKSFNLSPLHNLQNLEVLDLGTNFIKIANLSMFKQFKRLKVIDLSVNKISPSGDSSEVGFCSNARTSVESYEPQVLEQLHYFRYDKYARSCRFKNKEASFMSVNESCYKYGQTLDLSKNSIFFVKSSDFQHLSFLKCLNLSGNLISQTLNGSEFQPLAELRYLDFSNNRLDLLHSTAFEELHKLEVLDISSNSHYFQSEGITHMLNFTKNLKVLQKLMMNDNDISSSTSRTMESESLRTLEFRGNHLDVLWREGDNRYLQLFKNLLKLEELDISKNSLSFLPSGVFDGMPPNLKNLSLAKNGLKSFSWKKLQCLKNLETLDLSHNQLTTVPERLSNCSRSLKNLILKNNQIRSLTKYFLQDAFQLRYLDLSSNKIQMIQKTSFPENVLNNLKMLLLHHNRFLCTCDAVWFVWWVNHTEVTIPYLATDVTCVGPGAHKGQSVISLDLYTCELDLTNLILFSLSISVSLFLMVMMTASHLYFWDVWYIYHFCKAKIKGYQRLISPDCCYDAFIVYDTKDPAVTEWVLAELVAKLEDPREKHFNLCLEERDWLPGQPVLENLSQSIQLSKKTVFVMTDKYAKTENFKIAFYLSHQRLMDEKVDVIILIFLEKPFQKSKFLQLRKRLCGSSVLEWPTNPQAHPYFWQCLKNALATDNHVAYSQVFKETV
As to the kind of experiment: HEK293-Blue-hTLR-7 cells assay. The test is classed as cell-based. Conditions: HEK293-Blue-hTLR7 cells, R848 stimulation, 20 hrs; read-out: HEK/hTLR7 IC50. From the text:
A stable HEK293-Blue-hTLR-7 cell line was purchased from InvivoGen (Cat. #: hkb-htlr7, San Diego, California, USA). These cells were originally designed for studying the stimulation of human TLR7 by monitoring the activation of NF-κB. A SEAP (secreted embryonic alkaline phosphatase) reporter gene was placed under the control of the IFN-β minimal promoter fused to five NF-κB and AP-1-binding sites. The SEAP was induced by activating NF-κB and AP-1 via stimulating HEK-Blue hTLR7 cells with TLR7 ligands. Therefore the reporter expression was declined by TLR7 antagonist under the stimulation of a ligand, such as R848 (Resiquimod), for incubation of 20 hrs. The cell culture supernatant SEAP reporter activity was determined using QUANTI-Blue™ kit (Cat. #: rep-qbl, Invivogen, San Diego, Ca, USA) at a wavelength of 640 nm, a detection medium that turns purple or blue in the presence of alkaline phosphatase.
HEK293-Blue-hTLR7 cells were incubated at a density of 250,000-450,000 cells/mL in a volume of 170 μL in a 96-well plate in Dulbecco's Modified Eagle's medium (DMEM) containing 4.5 g/L glucose, 50 U/mL penicillin, […] streptomycin, […] Normocin, […] L-glutamine, 10% […] heat-inactivated fetal bovine serum with addition of 20 μL test compound in a serial dilution in the presence of final DMSO at 1% and 10 μL of 20 μM R848 in above DMEM, perform incubation under 37° C. in a CO2 incubator for 20 hrs. Then 20 μL of the supernatant from each well was incubated with 180 μL Quanti-blue substrate solution at 37° C. for 2 hrs and the absorbance was read at […] using a spectrophotometer. The signaling pathway that TLR7 activation leads to downstream NF-κB activation has been widely accepted, and therefore similar reporter assay was modified for evaluating TLR7 antagonist.
Consider `Cc1cc(N2CCC(c3cnc(N4CCNCC4)cc3C)[C@H](C)C2)c2cnn(C)c2n1` (single isomer, unassigned) [Example 20, 1,6-dimethyl-4-[cis-3-methyl-4-(4-methyl-6-piperazin-1-yl-3-pyridyl)-1-piperidyl]pyrazolo[3,4-b]pyridine], for which the IC50 turned out to be 50 nM.
With `Cc1cc(N2CCC(c3cnc(N4CCNCC4)cc3C)[C@H](C)C2)c2cnn(C)c2n1` (single isomer, unassigned) [Example 21, 1,6-dimethyl-4-[trans-3-methyl-4-(4-methyl-6-piperazin-1-yl-3-pyridyl)-1-piperidyl]pyrazolo[3,4-b]pyridine], the IC50 worked out at 16 nM.
The same measure for `Cc1cc(N2CCC(c3ncc(N4CCNCC4)nc3C)[C@H](C)C2)c2cnn(C)c2n1` (single isomer, unassigned) [Example 22, 1,6-dimethyl-4-[cis-3-methyl-4-(3-methyl-5-piperazin-1-yl-pyrazin-2-yl)-1-piperidyl]pyrazolo[3,4-b]pyridine]: 49 nM.
The figure for `Cc1cc(N2CCC(c3ncc(N4CCNCC4)nc3C)[C@H](C)C2)c2cnn(C)c2n1` (single isomer, unassigned) [Example 23, 1,6-dimethyl-4-[trans-3-methyl-4-(3-methyl-5-piperazin-1-yl-pyrazin-2-yl)-1-piperidyl]pyrazolo[3,4-b]pyridine] is 11 nM; for `Cc1cc(N2CCC(c3ncc(N4CCNCC4)cc3C)[C@H](C)C2)c2cnn(C)c2n1` (single isomer, unassigned) [Example 24, 1,6-dimethyl-4-[cis-3-methyl-4-(3-methyl-5-piperazin-1-yl-2-pyridyl)-1-piperidyl]pyrazolo[3,4-b]pyridine] it is 82 nM; for `Cc1cc(N2CCC(c3cnc(N4CCNCC4)cn3)CC2)c2cnn(C)c2n1` [Example 3, 1,6-dimethyl-4-[4-(5-piperazin-1-ylpyrazin-2-yl)-1-piperidyl]pyrazolo[3,4-b]pyridine] it is 20 nM.
The same measure for `Cc1cc(N2CCC(c3ncc(N4CCNCC4)cn3)CC2)c2cnn(C)c2n1` [Example 4, 1,6-dimethyl-4-[4-(5-piperazin-1-ylpyrimidin-2-yl)-1-piperidyl]pyrazolo[3,4-b]pyridine]: 31 nM; for `Cc1cc(N2CCNCC2)cnc1C1CCN(c2ccnc3c2cnn3C)CC1` [Example 5, 1-methyl-4-[4-(3-methyl-5-piperazin-1-yl-2-pyridyl)-1-piperidyl]pyrazolo[3,4-b]pyridine]: 8 nM.
As for `Cc1cc(N2CCC(c3cnc(N4CCNCC4)cc3C)CC2)c2cnn(C)c2n1` [Example 8, 1,6-dimethyl-4-[4-(4-methyl-6-piperazin-1-yl-3-pyridyl)-1-piperidyl]pyrazolo[3,4-b]pyridine], the IC50 is 52 nM.
Take `Cc1cc(N2CCC(c3cc(C)c(N4CCNCC4)cn3)CC2)c2cnn(C)c2n1` [Example 9, 1,6-dimethyl-4-[4-(4-methyl-5-piperazin-1-yl-2-pyridyl)-1-piperidyl]pyrazolo[3,4-b]pyridine]: the IC50 amounted to 39 nM.
The same measure for `Cc1cc(N2CCC(c3ccc(N4CCNCC4)nc3C)CC2)c2cnn(C)c2n1` [Example 10, 1,6-dimethyl-4-[4-(2-methyl-6-piperazin-1-yl-3-pyridyl)-1-piperidyl]pyrazolo[3,4-b]pyridine]: 39 nM.
The same measure for `CCc1cc(N2CCNCC2)cnc1C1CCN(c2cc(C)nc3c2cnn3C)CC1` [Example 13, 4-[4-(3-ethyl-5-piperazin-1-yl-2-pyridyl)-1-piperidyl]-1,6-dimethyl-pyrazolo[3,4-b]pyridine]: 26 nM.
The figure for `COc1cc(N2CCNCC2)cnc1C1CCN(c2cc(C)nc3c2cnn3C)CC1` [Example 14, 4-[4-(3-methoxy-5-piperazin-1-yl-2-pyridyl)-1-piperidyl]-1,6-dimethyl-pyrazolo[3,4-b]pyridine] is 12 nM; for `Cc1cc(N2CCC(c3ncc(N4CC[C@@H](N)[C@@H](F)C4)cc3C)CC2)c2cnn(C)c2n1` [Example 15, (3S,4R)-1-[6-[1-(1,6-dimethylpyrazolo[3,4-b]pyridin-4-yl)-4-piperidyl]-5-methyl-3-pyridyl]-3-fluoro-piperidin-4-amine] it is 24 nM; for `COC[C@H]1CN(c2cnc(C3CCN(c4cc(C)nc5c4cnn5C)CC3)c(C)c2)CCN1` [Example 16, 4-[4-[5-[(3R)-3-(methoxymethyl)piperazin-1-yl]-3-methyl-2-pyridyl]-1-piperidyl]-1,6-dimethyl-pyrazolo[3,4-b]pyridine] it is 23 nM.
Consider `CO[C@H]1CN(c2cnc(C3CCN(c4cc(C)nc5c4cnn5C)CC3)c(C)c2)CC[C@@H]1N` [Example 17, (3S,4S)-1-[6-[1-(1,6-dimethylpyrazolo[3,4-b]pyridin-4-yl)-4-piperidyl]-5-methyl-3-pyridyl]-3-methoxy-piperidin-4-amine], for which the IC50 stood at 22 nM.
The figure for `Cc1cc(N2CC[C@@H](c3ncc(N4CC5(CNCCO5)C4)cc3C)[C@H](C)C2)c2cnn(C)c2n1` [Example 27, 2-[6-[(3S,4R)-1-(1,6-dimethylpyrazolo[3,4-b]pyridin-4-yl)-3-methyl-4-piperidyl]-5-methyl-3-pyridyl]-5-oxa-2,8-diazaspiro[3.5]nonane] is 9 nM; for `Cc1cc(N2CC[C@@H](c3ncc(N4CC[C@@H](N)[C@H](F)C4)cc3C)[C@H](C)C2)c2cnn(C)c2n1` [Example 31, (3R,4R)-1-[6-[(3S,4R)-1-(1,6-dimethylpyrazolo[3,4-b]pyridin-4-yl)-3-methyl-4-piperidyl]-5-methyl-3-pyridyl]-3-fluoro-piperidin-4-amine] it is 5 nM.
The figure for `Cc1cc(N2CC[C@@H](c3ccc(N4CCNCC4)cn3)[C@H](C)C2)c2cnn(C)c2n1` [Example 34, 1,6-dimethyl-4-[(3S,4R)-3-methyl-4-(5-piperazin-1-yl-2-pyridyl)-1-piperidyl]pyrazolo[3,4-b]pyridine] is 82 nM; for `CO[C@H]1CN(c2ccc([C@H]3CCN(c4cc(C)nc5c4cnn5C)C[C@@H]3C)nc2)CC[C@@H]1N` [Example 39, (3S,4S)-1-[6-[(3R,4S)-1-(1,6-dimethylpyrazolo[3,4-b]pyridin-4-yl)-3-methyl-4-piperidyl]-3-pyridyl]-3-methoxy-piperidin-4-amine] it is 12 nM.
The same measure for `Cc1cc(N2CC[C@H](c3ccc(N4CC[C@@H](N)[C@H](F)C4)cn3)[C@@H](C)C2)c2cnn(C)c2n1` [Example 41, (3R,4R)-1-[6-[(3R,4S)-1-(1,6-dimethylpyrazolo[3,4-b]pyridin-4-yl)-3-methyl-4-piperidyl]-3-pyridyl]-3-fluoro-piperidin-4-amine]: 6 nM.
